Legend:
[1] = test system: point mutant form of Sestrin2 unable to bind leucine; test: ILBA with Flag-tagged point mutant Sestrin2; format: binding, human
Method: In one version, the assay was performed with crude lysate generated from a human cell line after a 1-hour period of amino acid starvation (cells are lysed in 1% Triton, 10 mM beta-glycerol phosphate, 10 mM sodium pyrophosphate, 40 mM HEPES [pH 7.4], 150 mM NaCl and 2.5 mM MgCl2). […] After compound incubation, samples were subjected to immunoprecipitation with the CST anti-Sestrin2 antibody for 1.5 hours followed by a 30-minute incubation with protein-A sepharose as described in L. Chantranupong, et al., Cell Reports 9:1-8 (2014). The sepharose conjugated antibody-protein complex was precipitated via centrifugation and the flow-through was subjected to a second round of immunoprecipitation with a rabbit polyclonal anti-Sestrin2 antibody (Protein Tech, #10795-1-AP) to determine that total Sestrin2 protein levels between samples were equal. SDS-PAGE was performed with the immunoprecipitation samples followed by western-blot with the mouse monoclonal anti-Sestrin2 antibody from SIGMA (cat #WH0083667M3).
This assay was also performed in cultured human cells over-expressing Sestrin2 N-terminally fused to a Flag tag. In this version of the assay, the procedure remained the same, but immunoblotting was performed with a mouse anti-Flag antibody (#F3165, SIGMA).

mTORC1 signaling = test: Cell-based mTORC1 activation (Method 2): western blot of phosphorylated S6 Kinase/4EBP1 in leucine-starved HEK293T cells; settings: concentration 100 μM, shift relative to DMSO control
Method: Briefly, 800,000 HEK293T cells were plated in each well of a 6-well plate in DMEM supplemented with 10% fetal bovine serum and antibiotics. […] Cells were then lysed, processed for SDS-PAGE and western blotting was performed with antibodies directed against the mTORC1 substrates phosphorylated S6 Kinase (Thr389) and phosphorylated 4EBP1 (Thr37/46) (Cell Signaling Technology) and loading controls (beta-actin, Santa Cruz Biotechnology) as described in Kang, S. A., et al. Science 341(6144): 364-374 (2013). The intensity of the bands corresponding to the phosphorylated substrates were then normalized to the actin band using the LI-COR® imaging platform.

[2] = target: T1, GATOR2/Sestrin2 complexes (Homo sapiens, UniProt P58004); test: In vitro PPI assay (Method 1; Western blot assay): Sestrin2 bound to GATOR2 after compound addition to immunoprecipitated FLAG-WDR24 complex; format: binding; settings: 25 μM, % activity relative to leucine (25 μM = 100%)
T1 construct: endogenous in cells; host or cells: HEK293T cells stably expressing FLAG-WDR24 (lentiviral, pLJM60)
T1 sequence (P58004 1-480): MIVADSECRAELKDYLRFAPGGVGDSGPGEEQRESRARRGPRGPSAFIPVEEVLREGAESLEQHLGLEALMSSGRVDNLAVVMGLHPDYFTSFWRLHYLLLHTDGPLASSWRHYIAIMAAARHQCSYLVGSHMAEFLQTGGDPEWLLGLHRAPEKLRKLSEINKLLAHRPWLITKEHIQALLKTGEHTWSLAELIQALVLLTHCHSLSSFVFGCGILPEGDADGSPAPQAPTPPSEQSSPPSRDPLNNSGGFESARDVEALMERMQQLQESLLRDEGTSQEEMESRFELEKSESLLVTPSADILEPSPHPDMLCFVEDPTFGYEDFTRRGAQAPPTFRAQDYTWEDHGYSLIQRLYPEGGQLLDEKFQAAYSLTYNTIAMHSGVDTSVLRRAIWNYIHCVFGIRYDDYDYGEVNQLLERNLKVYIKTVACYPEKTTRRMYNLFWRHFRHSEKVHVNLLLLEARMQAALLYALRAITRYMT
Source text: This screening assay measured test compound activity in vitro on GATOR2/Sestrin2 complexes purified via immunoprecipitation of stably expressed FLAG-WDR24 from HEK293T cells. HEK293T cells (293 Ts) were engineered to stably express N-terminally tagged FLAG-WDR24 via transduction by lentivirus. Lentiviruses were produced by co-transfection of the lentiviral transfer vector pLJM60 with the […] into HEK-293T cells using the XTremeGene 9 transfection reagent (Roche Diagnostics). The media was changed 24 hours post-transfection to Dulbecco's Modified Eagle's media (DMEM) supplemented with 30% Inactivated Fetal Serum. The virus-containing supernatants were collected 48 and 72 hours after transfection and passed through a 0.45 μm filter to eliminate cells. Target cells in 6-well tissue culture plates were infected in media containing 8 μg/mL polybrene and spin infections were performed by centrifugation at 2,200 rpm for 1 hour. Twenty-four hours after infection, the virus was removed and the cells selected with the appropriate antibiotic. Cells were then grown in DMEM supplemented with 10% fetal bovine serum and antibiotics.
Seventy-two hours later, cells were placed in standard RPMI media formulated with no amino acids and supplemented with 5 mM Glucose (−AA RPMI, US Biological Life Sciences) for 1 hour then subsequently lysed in lysis buffer (40 mM HEPES, 1% Triton, 10 mM sodium β-glycerophosphate, 10 mM sodium pyrophosphate, 2.5 mM MgCl2 and protease inhibitors). To isolate the FLAG-WDR24/endogenous-Sestrin2 complex, crude lysate (equivalent to 2-4 mg of total protein) in a volume of 1 ml was subjected to immunoprecipitation with 30 μl of anti-flag resin (SIGMA) for 2 hours at 4° C., washed twice in cold lysis buffer plus 0.5M NaCl and resuspended in 1 ml of cold cytosolic buffer (40 mM HEPES pH 7.4, 140 mM KCl, 10 mM NaCl, 2.5 mM MgCl2, 0.1% TritonX-100). […] After the incubation period, samples were centrifuged to pellet the FLAG-WDR24/endogenous-Sestrin2 complex bound to the anti-flag resin, the supernatant was completely removed and resin was resuspended in SDS-PAGE sample buffer and boiled for 5 minutes. Samples were then processed by SDS-PAGE and western blots were performed with anti-FLAG (SIGMA) and anti-Sestrin2 (Cell Signaling Technology) antibodies as described in L. Chantranupong, et al., Cell Reports 9:1-8 (2014).
The resulting western blots were scanned and band intensities corresponding to Sestrin2 and FLAG-WDR24 were quantified using the LI-COR® imaging platform. To determine the amount of Sestrin2 bound to GATOR2 for each condition, the band intensity for Sestrin2 was normalized to the band intensity of FLAG-WDR24. […]
72 hours later, cells were placed in standard RPMI media formulated with no amino acids and supplemented with 5 mM Glucose (−AA RPMI, USBiological Life Sciences) for 1 hour then subsequently lysed in lysis buffer (40 mM HEPES, 1% Triton, 10 mM Sodium Beta-Glycerophosphate, 10 mM Sodium Pyrophosphate, 2.5 mM MgCl2 and protease inhibitors). The Flag-WDR24/endogenous-Sestrin2 complex was isolated as follows: crude lysate (equivalent to 2-4 mg of total protein) in a volume of 1 ml was subjected to immunoprecipitation (IP) with 30 μl of anti-flag resin (SIGMA) for 2 hours at 4° C., washed twice in cold lysis buffer plus 0.5M NaCl and resuspended in 1 ml of cold cytosolic buffer (40 mM HEPES pH 7.4, 140 mM KCl, 10 mM NaCl, 2.5 mM MgCl2, 0.1% TritonX-100). Compounds were then added to each sample at a given concentration of 25 μM and incubated with rotation at 4° C. for 30 minutes. After the incubation period, samples were centrifuged to pellet the Flag-WDR24/endogenous-Sestrin2 complex bound to the anti-flag resin, the supernatant was completely removed and resin was resuspended in sodium dodecyl sulfate-polyacrylamide gel electrophoresis (SDS-PAGE) sample buffer and boiled for 5 minutes. […]

mTORC1 = test: Western blot of pS6 in rat brain and selected peripheral organs; format: in vivo; settings: Example D; Leu 500 mg/kg oral; 1 hr post-dose
Method: Study Design: Thirty (30) male rats weighing between 175 and 200 g were randomized into 3 study groups (n=10), following a 5-day acclimation period. One hour following dosing rats were sacrificed by conscious decapitation, plasma, brain and selected peripheral tissues were harvested for compound level and WB analysis. Tissues were prepared for WB to quantitate the mTORC1 substrate pS6 as a measure of mTORC1 activity.
The dosing volume based on the weight of the animal (10 mL/kg) was administered by oral gavage. Test articles were prepared the day of dosing.
Tissues Preparations: One hour following dosing rats were sacrificed by conscious decapitation, plasma, brain and peripheral tissues were harvested and immediately frozen in liquid nitrogen. Tissues were thawed and homogenized for 1 min twice using MP homogenizer in Lysis Buffer (Cell lysis buffer: 1% Triton X-100, 50 mM HEPES pH 7.4, 100 mM NaCl, 2 mM EDTA, 10 mM Beta-glycerophosphate, 10 mM Sodium pyrophosphate, and 1 protease inhibitor tab per 50 mL fresh) at 4° C. Lysates were then sonicated on ice for 20 s at 50% amplitude. The protein concentration was determined by Bradford assay and all samples were mixed with loading buffer (50 mM Tris-HCl pH 6.8, 2% SDS, 5% glycerol, 5% β-mercaptoethanol and 0.01% Bromophenol blue) and stored at −20° C. until WB analysis.
Western Blot (WB) Analysis. Equal amounts of each sample (15 μg of total protein) were loaded and separated on NuPAGE 4-12% Bis-Tris gels and transferred to PVDF membrane (Immobilon-FL PVDF membrane, Millipore) using CAPS Buffer (10 mM 3-(Cyclohexylamino)-1-propanesulfonic acid, 12.5% Ethanol pH=10). After transfer, membranes were incubated for 1 hr at room temperature in Odyssey blocking buffer (Licor). After blocking, membranes were incubated at 4° C. overnight with primary antibodies. Primary antibodies used were rabbit anti-[…] (cell signaling; #5364) at 1:1000, mouse anti-GAPDH (Sigma; #G8795) at 1:1000 and mouse anti-a-tubulin (Sigma; #T5168) at 1:10000 in Odyssey blocking buffer. The next day, membranes were washed three times in 1×TBS-Tween (25 mM Tris, pH 7.4, 3.0 mM KCl, 140 mM NaCl and 0.05% Tween-20) and incubated with dye-coupled secondary antibodies (goat anti-mouse IRdye680, and goat anti-rabbit IRdye800 from LI-COR) at 1:20000 in Odyssey blocking buffer for 30 min then wash three times in IX TBS-Tween. Signals were quantified using the Odyssey Infrared Imaging System (LI-COR Bioscience). The resulting densitometric readings were used to generate a ratio of phopho-protein to a-tubulin or GAPDH. The resulting ratio was further normalized to vehicle treated control group.

Question: How did the “decrease in affinity of the CST antibody upon ligand binding” value [1] turn out when CC(C)(C)C[C@H](N)C(=O)O [γ-methylleucine] was run?
Answer: not observed

Question: What does the source list for CC(C)(C)C[C@H](N)C(=O)O [Compound I-43]?
Answer: Cell-Based mTORC1 Activation (mTORC1 signaling): D to E; Activity of Leucine: % Activity [2]: A (a % activity relative to leucine of ≥40%)

Question: For NC(CCCC(F)(F)F)C(=O)O (stereo not shown) [Compound I-42], which “Cell-Based mTORC1 Activation” value (mTORC1 signaling) is on record?
Answer: D to F

Question: And the “Activity of Leucine: % Activity” value [2]?
Answer: A (a % activity relative to leucine of ≥40%)

Question: With C[C@H](CC(N)C(=O)O)C(F)(F)F (stereo in doubt) [Compound I-167, (2R,4R)-2-amino-5,5,5-trifluoro-4-methylpentanoic Acid] as the compound, how does the “Cell-Based mTORC1 Activation” value (mTORC1 signaling) read?
Answer: D to F

Question: What about the “Activity of Leucine: % Activity” value [2] of the same compound?
Answer: A (a % activity relative to leucine of ≥40%)

Question: What does the source list for CC(C)C[C@H](N)C(N)=O.Cl [Compound I-23]?
Answer: Cell-Based mTORC1 Activation (mTORC1 signaling): D to F; Activity of Leucine: % Activity [2]: C (a % activity relative to leucine of between -40 and 40%)

Question: How did the “pS6 levels in rat brain” value (mTORC1) turn out when CC(C)C[C@H](N)C(=O)O [Leu, Leucine, reference compound] was run?
Answer: no activation was observed

Question: What does the source list for N[C@@H](CC1CCC1)C(=O)O [Compound I-37]?
Answer: Cell-Based mTORC1 Activation (mTORC1 signaling): E to F; Activity of Leucine: % Activity [2]: A (a % activity relative to leucine of ≥40%)

Question: With COC(=O)[C@@H](N)CC(C)C [Compound I-168] as the compound, how does the “Cell-Based mTORC1 Activation” value (mTORC1 signaling) read?
Answer: D to E

From US20210228523A1, “MODULATORS OF SESTRIN-GATOR2 INTERACTION AND USES THEREOF” (Navitor Pharmaceuticals, Inc., priority 2017, published 2021)
